# Source: patent US6525001B1, “Substituted pyrimidine and pyridine herbicides” (Mid-American Commercialization Corporation, priority 1997, dated 2003)
# What was measured:
# Format in all cases: in vivo
# [1] = test system: arrowleaf sida (Sida rhombifolia); assay: Test C; set-up: key: 0 was no effect; 100 was complete control; settings: PREEMERGENCE
# [2] = test system: tall mallow (Malva sylvestris); assay: Test E pre-/postemergence/post directed; set-up: key: 0 is no effect; 100 is complete control; settings: PREEMERGENCE
# Excerpt: (§1) Seeds, tubers, or plant parts of alexandergrass (Brachiaria plantaginea), annual bluegrass (Poa annua), arrowleaf sida (Sida rhombifolia), barnyardgrass (Echinochloa crus-galli), bermudagrass (Cynodon dactylon), citrus (Citrus sinensis), common chickweed (Stellaria media), common purslane (Portulaca oleracea), common ragweed (Ambrosia elatior), common groundsel (Senecio vulgaris), dallisgrass (Paspalum dilatatum), goosegrass (Eleusine indica), green foxtail (Setaria viridis), guineagrass (Panicum maximum), itchgrass (Rottboellia exaltata), johnson grass (Sorghum halepense), kochia (Kochia scoparia), large crabgrass (Digitaria sanguinalis), leafy spurge (Euphorbia esula), pitted morningglory (Ipomoea lacunosa), purple nutsedge (Cyperus rotundus), quackgrass (Agropyron repens), Russian thistle (Salsola kali), sandbur (Cenchrus echinatus), sourgrass (Trichachne insularis), Spanishneedles (Bidens bipinnata), sugarcane (Saccharum officinarum), surinam grass (Brachiaria decumbens) and tall mallow (Malva sylvestris) were planted into greenhouse pots of flats containing greenhouse planting medium. Plant species were grown grown in separate pots or individual compartments. Preemergence applications were made within one day of planting the seed or plant part. Postemergence applications were applied when the plants were in the two to four leaf stage (three to twenty cm).
# (§2) Test chemicals were formulated in a non-phytotoxic solvent mixture which included a surfactant and applied preemergence to the soil surface, postemergence to the plants or as a post directed spray to plants and soil at the base of the target species. Untreated control plants and treated plants were placed in the greenhouse and visually evaluated for injury 13 to 21 days after herbicide application. Plant response ratings, summarized in Table E, are based on a 0 to 100 scale where 0 is no injury and 100 is complete control. A dash (−) response means no test result.
# [3] = test system: dallisgrass (Paspalum dilatatum); assay: Test E pre-/postemergence/post directed; set-up: key: 0 is no effect; 100 is complete control
# Excerpt: as §1, §2
# [4] = test system: common purslane (Portulaca oleracea); assay: Test E pre-/postemergence/post directed; set-up: key: 0 is no effect; 100 is complete control
# Excerpt: as §1, §2
# [5] = test system: guineagrass (Panicum maximum); assay: Test E pre-/postemergence/post directed; set-up: key: 0 is no effect; 100 is complete control
# Excerpt: as §1, §2
# [6] = test system: common groundsel (Senecio vulgaris); assay: Test E pre-/postemergence/post directed; set-up: key: 0 is no effect; 100 is complete control; settings: PREEMERGENCE
# Excerpt: as §1, §2
# [7] = test system: sourgrass (Trichachne insularis); assay: Test E pre-/postemergence/post directed; set-up: key: 0 is no effect; 100 is complete control
# Excerpt: as §1, §2
# [8] = test system: large crabgrass (Digitaria sanguinalis); assay: Test E pre-/postemergence/post directed; set-up: key: 0 is no effect; 100 is complete control; settings: PREEMERGENCE
# Excerpt: as §1, §2
# [9] = test system: common ragweed (Ambrosia elatior); assay: Test E pre-/postemergence/post directed; set-up: key: 0 is no effect; 100 is complete control; settings: PREEMERGENCE
# Excerpt: as §1, §2
# [10] = test system: bermudagrass (Cynodon dactylon); assay: Test E pre-/postemergence/post directed; set-up: key: 0 is no effect; 100 is complete control; settings: PREEMERGENCE
# Excerpt: as §1, §2
# [11] = test system: surinam grass (Brachiaria decumbens); assay: Test E pre-/postemergence/post directed; set-up: key: 0 is no effect; 100 is complete control; settings: PREEMERGENCE
# Excerpt: as §1, §2
# [12] = test system: goosegrass (Eleusine indica); assay: Test E pre-/postemergence/post directed; set-up: key: 0 is no effect; 100 is complete control
# Excerpt: as §1, §2
# [13] = test system: large crabgrass (Digitaria sanguinalis); assay: Test C; set-up: key: 0 was no effect; 100 was complete control; settings: PREEMERGENCE
structure (smiles),measurement,setting,value
"Cc1cnc(-n2ccc(C(F)(F)F)n2)nc1Cc1cccc(C(F)(F)F)c1 [Example 2, 5-methyl-4-[[3-(trifluoromethyl)phenyl]methyl]-2-[3-(trifluoromethyl)-1H-pyrazol-1-yl]pyrimidine]","Plant response rating, Arrowleaf sida",[1]; Rate 35 g/ha,10
same,"Plant response rating, Arrowleaf sida",[1]; Rate 70 g/ha,20
same,"Plant response rating, Arrowleaf sida",[1]; Rate 140 g/ha,100
same,"Plant response rating, Tall Mallow",[2]; Rate 32 g/ha,98
same,"Plant response rating, Tall Mallow",[2]; Rate 64 g/ha,100
same,"Plant response rating, Tall Mallow",[2]; Rate 125 g/ha,100
same,"Plant response rating, Tall Mallow",[2]; Rate 250 g/ha,100
same,"Plant response rating, Tall Mallow",[2]; Rate 500 g/ha,100
same,"Plant response rating, Dallisgrass","[3]; POSTEMERGENCE, Rate 32 g/ha",10
same,"Plant response rating, Dallisgrass","[3]; POSTEMERGENCE, Rate 64 g/ha",40
same,"Plant response rating, Dallisgrass","[3]; POSTEMERGENCE, Rate 125 g/ha",70
same,"Plant response rating, Dallisgrass","[3]; POSTEMERGENCE, Rate 250 g/ha",90
same,"Plant response rating, Dallisgrass","[3]; POSTEMERGENCE, Rate 500 g/ha",95
same,"Plant response rating, Dallisgrass","[3]; PREEMERGENCE, Rate 32 g/ha",90
same,"Plant response rating, Dallisgrass","[3]; PREEMERGENCE, Rate 64 g/ha",100
same,"Plant response rating, Dallisgrass","[3]; PREEMERGENCE, Rate 125 g/ha",100
same,"Plant response rating, Dallisgrass","[3]; PREEMERGENCE, Rate 250 g/ha",100
same,"Plant response rating, Dallisgrass","[3]; PREEMERGENCE, Rate 500 g/ha",100
same,"Plant response rating, Com. purslane","[4]; POSTEMERGENCE, Rate 32 g/ha",65
same,"Plant response rating, Com. purslane","[4]; POSTEMERGENCE, Rate 64 g/ha",65
same,"Plant response rating, Com. purslane","[4]; POSTEMERGENCE, Rate 125 g/ha",65
same,"Plant response rating, Com. purslane","[4]; POSTEMERGENCE, Rate 250 g/ha",70
same,"Plant response rating, Com. purslane","[4]; POSTEMERGENCE, Rate 500 g/ha",70
same,"Plant response rating, Com. purslane","[4]; PREEMERGENCE, Rate 32 g/ha",100
same,"Plant response rating, Com. purslane","[4]; PREEMERGENCE, Rate 64 g/ha",100
same,"Plant response rating, Com. purslane","[4]; PREEMERGENCE, Rate 125 g/ha",100
same,"Plant response rating, Com. purslane","[4]; PREEMERGENCE, Rate 250 g/ha",100
same,"Plant response rating, Com. purslane","[4]; PREEMERGENCE, Rate 500 g/ha",100
same,"Plant response rating, Guineagrass","[5]; POSTEMERGENCE, Rate 32 g/ha",5
same,"Plant response rating, Guineagrass","[5]; POSTEMERGENCE, Rate 125 g/ha",50
same,"Plant response rating, Guineagrass","[5]; POSTEMERGENCE, Rate 250 g/ha",50
same,"Plant response rating, Guineagrass","[5]; POSTEMERGENCE, Rate 500 g/ha",90
same,"Plant response rating, Guineagrass","[5]; PREEMERGENCE, Rate 32 g/ha",50
same,"Plant response rating, Guineagrass","[5]; PREEMERGENCE, Rate 64 g/ha",50
same,"Plant response rating, Guineagrass","[5]; PREEMERGENCE, Rate 125 g/ha",100
same,"Plant response rating, Guineagrass","[5]; PREEMERGENCE, Rate 250 g/ha",100
same,"Plant response rating, Com. groundsel",[6]; Rate 32 g/ha,100
same,"Plant response rating, Com. groundsel",[6]; Rate 64 g/ha,100
same,"Plant response rating, Com. groundsel",[6]; Rate 125 g/ha,100
same,"Plant response rating, Com. groundsel",[6]; Rate 250 g/ha,100
same,"Plant response rating, Com. groundsel",[6]; Rate 500 g/ha,100
same,"Plant response rating, Sourgrass","[7]; POSTEMERGENCE, Rate 32 g/ha",10
same,"Plant response rating, Sourgrass","[7]; POSTEMERGENCE, Rate 64 g/ha",20
same,"Plant response rating, Sourgrass","[7]; POSTEMERGENCE, Rate 125 g/ha",20
same,"Plant response rating, Sourgrass","[7]; POSTEMERGENCE, Rate 250 g/ha",40
same,"Plant response rating, Sourgrass","[7]; POSTEMERGENCE, Rate 500 g/ha",80
same,"Plant response rating, Sourgrass","[7]; PREEMERGENCE, Rate 32 g/ha",100
same,"Plant response rating, Sourgrass","[7]; PREEMERGENCE, Rate 64 g/ha",100
same,"Plant response rating, Sourgrass","[7]; PREEMERGENCE, Rate 125 g/ha",100
same,"Plant response rating, Sourgrass","[7]; PREEMERGENCE, Rate 250 g/ha",100
same,"Plant response rating, Sourgrass","[7]; PREEMERGENCE, Rate 500 g/ha",100
same,"Plant response rating, Large crabgrass",[8]; Rate 64 g/ha,100
same,"Plant response rating, Large crabgrass",[8]; Rate 125 g/ha,100
same,"Plant response rating, Large crabgrass",[8]; Rate 250 g/ha,100
same,"Plant response rating, Large crabgrass",[8]; Rate 500 g/ha,100
same,"Plant response rating, Com. ragweed",[9]; Rate 32 g/ha,100
same,"Plant response rating, Com. ragweed",[9]; Rate 64 g/ha,100
same,"Plant response rating, Com. ragweed",[9]; Rate 125 g/ha,100
same,"Plant response rating, Com. ragweed",[9]; Rate 250 g/ha,100
same,"Plant response rating, Com. ragweed",[9]; Rate 500 g/ha,100
same,"Plant response rating, Bermudagrass",[10]; Rate 64 g/ha,100
same,"Plant response rating, Bermudagrass",[10]; Rate 125 g/ha,100
same,"Plant response rating, Bermudagrass",[10]; Rate 250 g/ha,100
same,"Plant response rating, Bermudagrass",[10]; Rate 500 g/ha,100
same,"Plant response rating, Surinam grass",[11]; Rate 125 g/ha,100
same,"Plant response rating, Surinam grass",[11]; Rate 250 g/ha,100
same,"Plant response rating, Surinam grass",[11]; Rate 500 g/ha,100
same,"Plant response rating, Goosegrass","[12]; POSTEMERGENCE, Rate 32 g/ha",60
same,"Plant response rating, Goosegrass","[12]; POSTEMERGENCE, Rate 64 g/ha",75
same,"Plant response rating, Goosegrass","[12]; POSTEMERGENCE, Rate 250 g/ha",90
same,"Plant response rating, Goosegrass","[12]; POSTEMERGENCE, Rate 500 g/ha",95
same,"Plant response rating, Goosegrass","[12]; PREEMERGENCE, Rate 32 g/ha",95
same,"Plant response rating, Goosegrass","[12]; PREEMERGENCE, Rate 64 g/ha",100
same,"Plant response rating, Goosegrass","[12]; PREEMERGENCE, Rate 125 g/ha",100
same,"Plant response rating, Goosegrass","[12]; PREEMERGENCE, Rate 250 g/ha",100
same,"Plant response rating, Goosegrass","[12]; PREEMERGENCE, Rate 500 g/ha",100
same,"Plant response rating, Large crabgrass",[13]; Rate 35 g/ha,0
same,"Plant response rating, Large crabgrass",[13]; Rate 70 g/ha,5
same,"Plant response rating, Large crabgrass",[13]; Rate 140 g/ha,100
